Consider 5 compounds from patent US20110301155A1, “INDAZOLE COMPOUNDS FOR ACTIVATING GLUCOKINASE” (priority 2007, published 2011).

The structures appear in SMILES notation. Counter-ions that a name gives are not always drawn.

The assay addresses T1, GK (recombinant glucokinase, residues 12-465 of the human enzyme) (Homo sapiens, UniProt P35557).
T1 construct: FLAG (C-terminal tag of vector pFLAG-CTC; only the vector is printed) (C); made in house; host or cells: Escherichia coli DH10b-T1r (pFLAG-CTC plasmid)
T1 sequence (P35557 12-465): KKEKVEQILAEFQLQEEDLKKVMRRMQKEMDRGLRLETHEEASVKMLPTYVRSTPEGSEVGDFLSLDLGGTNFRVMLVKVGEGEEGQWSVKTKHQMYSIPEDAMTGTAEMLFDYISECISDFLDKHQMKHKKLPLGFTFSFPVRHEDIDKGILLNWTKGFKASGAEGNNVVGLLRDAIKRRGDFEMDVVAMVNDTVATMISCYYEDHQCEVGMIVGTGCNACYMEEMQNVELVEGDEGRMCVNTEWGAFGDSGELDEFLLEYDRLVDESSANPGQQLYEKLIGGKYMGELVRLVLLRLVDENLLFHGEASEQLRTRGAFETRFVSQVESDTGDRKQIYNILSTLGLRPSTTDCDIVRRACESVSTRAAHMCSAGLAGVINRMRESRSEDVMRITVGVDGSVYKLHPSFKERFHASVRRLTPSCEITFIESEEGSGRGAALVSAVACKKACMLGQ
Description: Determination of GK activity value (luminescence assay). The note with it: calculated maximal gain in GK enzyme activity at saturating compound concentration; 5 mM glucose, 5 μM ATP. Format: biochemical. An excerpt:
DNA encoding residues 12-465 of the full-length sequence of the human enzyme may be amplified by PCR and cloned into the HindIII and EcoRI sites of pFLAG-CTC (Sigma). SEQ.I.D. No. 1 corresponds to residues 12-465 of glucokinase.
The expression of recombinant glucokinase protein may be carried out by transformation and growth of DH10b-T1r E. coli cells incorporating the (pFLAG-CTC) plasmid in LB media. Protein expression can be induced in this system by the addition of IPTG to the culture medium.
Recombinant protein may be isolated from cellular extracts by passage over Sepharose Q Fast Flow resin (Pharmacia). This partially purified GK extract may then be further purified by a second passage over Poros HQ10 (Applied Biosystems). The purity of GK may be determined on denaturing SDS-PAGE gel. Purified GK may then be concentrated to a final concentration of 20.0 mg/ml. After flash freezing in liquid nitrogen, the proteins can be stored at −78° C. in a buffer containing 25 mM TRIS-HCl pH 7.6, 50 mM NaCl, and 0.5 mM TCEP.
The activation properties of compounds for GK may be determined using a black 384-well-plate format under the following reaction conditions: 25 mM Hepes pH 7.2, 25 mM NaCl, 10 mM MgCl2, 0.01% Brij35, 1 mM DTT, 5 μM ATP, 5 mM Glucose 2% DMSO. The amount of ATP consumed may be determined quantitatively by addition of equal volume of luciferase reagent (luciferase+beetle luciferin—KinaseGlo Luminescent Kinase Assay kit from Promega). The luminescence intensity may be measured by using the Analyst HT from LJL Biosystems.
The assay reaction may be initiated as follows: 4 μl of substrate mixture (12.5 μM ATP and 12.5 mM Glucose) was added to each well of the plate, followed by the addition of 2 μl of activator (2 fold serial dilutions for 11 data points for each activator) containing 10% DMSO. 4 μL of 1.25 nM GK solution obtained in Reference Example 3A may be added to initiate the reaction. The reaction mixture may then be incubated at room temperature for 60 min, and quenched and developed by addition of 10 μL of luciferase reagent. Luminescence intensities of the resulting reaction mixtures may be measured after a 10 min incubation at room temperature. The luminescence intensity may be measured by using the Analyst HT from LJL Biosystems.
% ACTmax values may be calculated by non-linear curve fitting of the compound concentrations and luminescence intensities to a standard inhibition/activation equation. % ACTmax represents the calculated maximal gain in GK enzyme activity at a saturating concentration of the compound. % ACTmax values for select compounds of the present invention are given in Table 2.
Take `COCC(O)Cn1ccc(Nc2n[nH]c3c(Oc4ccc(S(C)(=O)=O)cc4)cc(-c4ncccc4Cl)cc23)n1` (centres unmarked) [Example 140, 1-(3-(5-(3-chloropyridin-2-yl)-7-(4-(methylsulfonyl)phenoxy)-1H-indazol-3-ylamino)-1H-pyrazol-1-yl)-3-methoxypropan-2-ol]: the “% ACTmax” value is listed as 146.5%.
The figure for `Cn1ccc(Nc2nn(C)c3c(Oc4ccc(S(C)(=O)=O)cc4)cc(-c4ncccc4Cl)cc23)n1` [Example 134, 5-(3-chloropyridin-2-yl)-1-methyl-N-(1-methyl-1H-pyrazol-3-yl)-7-(4-(methylsulfonyl)phenoxy)-1H-indazol-3-amine] is 24.1%; for `CC(C)Oc1cc(Oc2ccc(S(C)(=O)=O)cc2)c2[nH]nc(Nc3ccn(C)n3)c2c1` [Example 133, 5-isopropoxy-N-(1-methyl-1H-pyrazol-3-yl)-7-(4-(methylsulfonyl)phenoxy)-1H-indazol-3-amine] it is 146.3%.
Next, `CS(=O)(=O)c1ccc(Oc2cc(-c3ncccc3Cl)cc3c(Nc4ccn(CC(O)CO)n4)n[nH]c23)cc1` (centres unmarked) [Example 131, 3-(3-(5-(3-chloropyridin-2-yl)-7-(4-(methylsulfonyl)phenoxy)-1H-indazol-3-ylamino)-1H-pyrazol-1-yl)propane-1,2-diol]: 147.8%; `CC(C)S(=O)(=O)c1cc(Oc2ccc(S(C)(=O)=O)cc2)c2[nH]nc(Nc3ccn(C)n3)c2c1` [Example 136, 5-(isopropylsulfonyl)-N-(1-methyl-1H-pyrazol-3-yl)-7-(4-(methylsulfonyl)phenoxy)-1H-indazol-3-amine trifluoroacetic acid salt]: 110.9%.
